pIC50: −log10 of the molar value. Like-named read-outs stand apart in the source and are kept apart here.
Legend:
Format in all cases: biochemical
[1] = biological target: T1, KRAS G12D (Homo sapiens, UniProt P01116, G12D); assay: HTRF nucleotide exchange assay (NEA), KRAS G12D; details: recombinant human KRAS G12D aa1-188, 2 nM; lowest class = % inhibition at 10 μM
T1 construct: Recombinant human RAS protein (2 nM)
Experimental: (§1) The capacity of compounds to bind KRAS G12D, other KRAS mutants and wildtype RAS isoforms was quantified using a HTRF nucleotide exchange assay. Recombinant human RAS protein (2 nM; aa1-188 KRAS WT, HRAS WT, NRAS WT, or KRAS containing the containing the G12D, G13D or Q61H amino acid substitutions, or 4 nM KRAS; aa1-188 containing the G12V, G12C, G12A or G12S amino acid substitution, an N-terminal 6×His-tag and leader sequence), and 2 nM Europium-labeled anti-6×His antibody were mixed in assay buffer (10 mM HEPES pH7.3, 150 mM NaCl, 5 mM MgCl2, 0.05% BSA, 0.0025% NP-40 and 100 mM KF) with various concentrations of compound in a 384-well plate and a volume of 5 uL. After a 60-minute incubation at room temperature, 5 ul of 200 nM EDA-GTP-DY647P1 (diluted in assay buffer) was added to the plate. Following 30-minute incubation at room temperature, time-resolved fluorescence was measured on a PerkinElmer Envision plate reader. DMSO (0.3%) and unlabeled […] (1 μM) or equivalent tool compound were used to generate the Max and Min assay signals, respectively. Data was analysed using a four-parameter logistic model to calculate IC50 values, with at least two independent replicates were performed for each compound.

[2] = biological target: T2, KRAS WT (Homo sapiens, UniProt P01116); assay: HTRF nucleotide exchange assay (NEA), KRAS WT
T2 construct: Recombinant human RAS protein (2 nM); aa1-188 KRAS WT
T2 sequence (P01116 1-188 isoform P01116-2): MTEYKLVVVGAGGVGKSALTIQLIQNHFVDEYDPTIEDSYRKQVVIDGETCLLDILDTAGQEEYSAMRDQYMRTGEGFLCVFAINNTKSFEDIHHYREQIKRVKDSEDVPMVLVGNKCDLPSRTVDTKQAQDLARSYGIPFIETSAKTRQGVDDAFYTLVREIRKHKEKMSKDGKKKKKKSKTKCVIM
Experimental: as §1

[3] = biological target: T3, KRAS G12C (Homo sapiens, UniProt P01116, G12C); assay: HTRF nucleotide exchange assay (NEA), KRAS G12C
T3 construct: 4 nM KRAS; aa1-188 containing the G12V, G12C, G12A or G12S amino acid substitution
T3 sequence (P01116 1-188 isoform P01116-2 G12C): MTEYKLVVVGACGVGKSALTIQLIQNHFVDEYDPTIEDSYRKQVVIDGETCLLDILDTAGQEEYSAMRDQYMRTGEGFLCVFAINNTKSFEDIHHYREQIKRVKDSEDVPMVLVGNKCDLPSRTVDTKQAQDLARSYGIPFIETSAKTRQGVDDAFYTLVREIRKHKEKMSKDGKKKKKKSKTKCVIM
Experimental: as §1

[4] = biological target: T4, KRAS G12V (Homo sapiens, UniProt P01116, G12V); assay: HTRF nucleotide exchange assay (NEA), KRAS G12V
T4 construct: 4 nM KRAS; aa1-188 containing the G12V, G12C, G12A or G12S amino acid substitution
T4 sequence (P01116 1-188 isoform P01116-2 G12V): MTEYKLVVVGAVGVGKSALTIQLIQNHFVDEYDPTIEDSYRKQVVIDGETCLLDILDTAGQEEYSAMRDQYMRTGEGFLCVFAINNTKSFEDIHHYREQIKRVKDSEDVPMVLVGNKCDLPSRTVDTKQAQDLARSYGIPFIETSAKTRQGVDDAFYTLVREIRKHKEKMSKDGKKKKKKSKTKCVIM
Experimental: as §1

[5] = recombinant human KRAS WT aa1-188, 2 nM, lowest class = % inhibition at 10 μM

T1 sequence (P01116 1-188 isoform P01116-2 G12D): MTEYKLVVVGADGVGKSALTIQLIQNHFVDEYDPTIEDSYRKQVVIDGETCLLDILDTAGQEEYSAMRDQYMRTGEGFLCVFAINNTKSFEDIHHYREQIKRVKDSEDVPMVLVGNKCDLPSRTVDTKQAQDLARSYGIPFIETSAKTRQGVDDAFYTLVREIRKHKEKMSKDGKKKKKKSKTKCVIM

pIC50 [1] | pIC50 [2] | pIC50 [3] | pIC50 [4] | pIC50 [2, 5] | SMILES
≥ 8.00 | ≥ 8.00 | ≥ 8.00 | ≥ 8.00 |  | C#Cc1c(F)ccc2cc(O)cc(-c3ncc4c(N5CCC(O)CC5)nc(OC[C@@]56CCCN5C[C@H](F)C6)nc4c3F)c12 (relative stereo) [Example 86, 1-[7-(8-ethynyl-7-fluoro-3-hydroxy-1-naphthyl)-8-fluoro-2-[[trans-2-fluoro-1,2,3,5,6,7-hexahydropyrrolizin-8-yl]methoxy]pyrido[4,3-d]pyrimidin-4-yl]piperidin-4-ol]
5.00 to 7.00 | 5.00 to 7.00 |  |  |  | Oc1cc(-c2ncc3c(N4CC5CC4CC5O)nc(OCC45CCCN4CCC5)nc3c2F)c2ccccc2c1 (stereo not shown) [Example 66, 2-[8-fluoro-2-(1,2,3,5,6,7-hexahydropyrrolizin-8-ylmethoxy)-7-(3-hydroxy-1-naphthyl)pyrido[4,3-d]pyrimidin-4-yl]-2-azabicyclo[2.2.1] heptan-5-ol]
5.00 to 7.00 | 5.00 to 7.00 |  |  |  | NS(=O)(=O)CCCNc1nc(OCC23CCCN2CCC3)nc2c(F)c(-c3cc(O)cc4ccccc34)ncc12 [Example 67]
5.00 to 7.00 | 5.00 to 7.00 |  |  |  | CC1CN(c2nc(OCC34CCCN3CCC4)nc3c(F)c(-c4cc(O)cc5ccccc45)ncc23)CCC1O (stereo not shown) [Example 68, 1-[8-fluoro-2-(1,2,3,5,6,7-hexahydropyrrolizin-8-ylmethoxy)-7-(3-hydroxy-1-naphthyl)pyrido[4,3-d]pyrimidin-4-yl]-3-methyl-piperidin-4-ol]
7.00 to 8.00 | 5.00 to 7.00 |  |  |  | CC1CC(O)CCN1c1nc(OCC23CCCN2CCC3)nc2c(F)c(-c3cc(O)cc4ccccc34)ncc12 (stereo not shown) [Example 69, 1-[8-fluoro-2-(1,2,3,5,6,7-hexahydropyrrolizin-8-ylmethoxy)-7-(3-hydroxy-1-naphthyl)pyrido[4,3-d]pyrimidin-4-yl]-2-methyl-piperidin-4-ol]
5.00 to 7.00 | 5.00 to 7.00 |  |  |  | Oc1cc(-c2ncc3c(N4CC5CC(C4)C5O)nc(OCC45CCCN4CCC5)nc3c2F)c2ccccc2c1 (stereo not shown) [Example 71, 3-[8-fluoro-2-(1,2,3,5,6,7-hexahydropyrrolizin-8-ylmethoxy)-7-(3-hydroxy-1-naphthyl)pyrido[4,3-d]pyrimidin-4-yl]-3-azabicyclo[3.1.1] heptan-6-ol]
5.00 to 7.00 | 5.00 to 7.00 |  |  |  | Oc1cc(-c2ncc3c(N4CCC5CCC(C4)O5)nc(OCC45CCCN4CCC5)nc3c2F)c2ccccc2c1 (stereo not shown) [Example 80, 4-[8-fluoro-2-(1,2,3,5,6,7-hexahydropyrrolizin-8-ylmethoxy)-4-(9-oxa-3-azabicyclo[4.2.1]nonan-3-yl)pyrido [4,3-d]pyrimidin-7-yl]naphthalen-2-ol]
5.00 to 7.00 |  |  |  | < 5.00 | Fc1c(-c2cccc3[nH]ncc23)ncc2c(N3CCCOCC3)nc(OCC34CCCN3CCC4)nc12 [Example 92, 4-[8-fluoro-2-(1,2,3,5,6,7-hexahydropyrrolizin-8-ylmethoxy)-7-(1H-indazol-4-yl)pyrido[4,3-d]pyrimidin-4-yl]-1,4-oxazepane]
5.00 to 7.00 | 5.00 to 7.00 |  |  |  | Nc1nc2c(-c3ncc4c(N5CCCOCC5)nc(OCC56CCCN5CCC6)nc4c3F)cccc2s1 [Example 93, 4-[8-fluoro-2-(1,2,3,5,6,7-hexahydropyrrolizin-8-ylmethoxy)-4-(1,4-oxazepan-4-yl)pyrido[4,3-d]pyrimidin-7-yl]-1,3-benzothiazol-2-amine]
5.00 to 7.00 |  |  |  | < 5.00 | Fc1c(-c2cccc3[nH]ncc23)ncc2c(N3CCCOCC3)nc(OC[C@@]34CCCN3C[C@H](F)C4)nc12 [Example 95, 4-[8-fluoro-7-(1H-indazol-4-yl)-2-[[trans-2-fluoro-1,2,3,5,6,7-hexahydropyrrolizin-8-yl]methoxy]pyrido[4,3-d]pyrimidin-4-yl]-1,4-oxazepane]

The next lines start with the compound.

SMILES | pIC50 [1] | pIC50 [2] | pIC50 [3] | pIC50 [4] | pIC50 [2, 5]
Oc1cc(-c2ncc3c(N4CCC5(CCNC5)CC4)nc(OCC45CCCN4CCC5)nc3c2F)c2ccccc2c1 [Example 2, 4-[4-(2,8-diazaspiro[4.5]decan-8-yl)-8-fluoro-2-(1,2,3,5,6,7-hexahydropyrrolizin-8-ylmethoxy)pyrido[4,3-d]pyrimidin-7-yl]naphthalen-2-ol] | 5.00 to 7.00 | 5.00 to 7.00 | 5.00 to 7.00 |  | 
Oc1cc(-c2ncc3c(N4CCOCC4)nc(OCC45CCCN4CCC5)nc3c2F)c2ccccc2c1 [Example 5, 4-[8-fluoro-2-(1,2,3,5,6,7-hexahydropyrrolizin-8-ylmethoxy)-4-(morpholin-4-yl)pyrido[4,3-d]pyrimidin-7-yl]naphthalen-2-ol] | 5.00 to 7.00 | 5.00 to 7.00 | 5.00 to 7.00 | 5.00 to 7.00 | 
CC1CN(c2nc(OCC34CCCN3CCC4)nc3c(F)c(-c4cc(O)cc5ccccc45)ncc23)CCO1 (stereo not shown) [Example 6, 4-[8-fluoro-2-(1,2,3,5,6,7-hexahydropyrrolizin-8-ylmethoxy)-4-(2-methylmorpholin-4-yl)pyrido[4,3-d]pyrimidin-7-yl]naphthalen-2-ol] | 5.00 to 7.00 | 5.00 to 7.00 | 5.00 to 7.00 | 5.00 to 7.00 | 
Oc1cc(-c2ncc3c(N4CC5CCC(C4)O5)nc(OCC45CCCN4CCC5)nc3c2F)c2ccccc2c1 [Example 7, 4-[8-fluoro-2-(1,2,3,5,6,7-hexahydropyrrolizin-8-ylmethoxy)-4-(8-oxa-3-azabicyclo[3.2.1]octan-3-yl)pyrido[4,3-d]pyrimidin-7-yl]naphthalen-2-ol] | 5.00 to 7.00 | 5.00 to 7.00 | 5.00 to 7.00 | 5.00 to 7.00 | 
COCCCNc1nc(OCC23CCCN2CCC3)nc2c(F)c(-c3cc(O)cc4ccccc34)ncc12 [Example 11, 4-[8-fluoro-2-(1,2,3,5,6,7-hexahydropyrrolizin-8-ylmethoxy)-4-(3-methoxypropylamino)pyrido[4,3-d]pyrimidin-7-yl]naphthalen-2-ol] | 7.00 to 8.00 | 5.00 to 7.00 | 5.00 to 7.00 | 5.00 to 7.00 | 
CC1COCCCN1c1nc(OCC23CCCN2CCC3)nc2c(F)c(-c3cc(O)cc4ccccc34)ncc12 (stereo not shown) [Example 18, 4-[8-fluoro-2-(1,2,3,5,6,7-hexahydropyrrolizin-8-ylmethoxy)-4-(3-methyl-1,4-oxazepan-4-yl)pyrido[4,3-d]pyrimidin-7-yl]naphthalen-2-ol] | 7.00 to 8.00 | 7.00 to 8.00 | 7.00 to 8.00 |  | 
O=S1(=O)CCCN(c2nc(OCC34CCCN3CCC4)nc3c(F)c(-c4cc(O)cc5ccccc45)ncc23)CC1 [Example 24, 4-[4-(1,1-dioxo-1,4-thiazepan-4-yl)-8-fluoro-2-(1,2,3,5,6,7-hexahydropyrrolizin-8-ylmethoxy)pyrido [4,3-d]pyrimidin-7-yl]naphthalen-2-ol] | 5.00 to 7.00 | 5.00 to 7.00 | 7.00 to 8.00 |  | 
COC(=O)CCNc1nc(OCC23CCCN2CCC3)nc2c(F)c(-c3cc(O)cc4ccccc34)ncc12 [Example 25] | 5.00 to 7.00 | 5.00 to 7.00 | 5.00 to 7.00 |  | 
CSCCCNc1nc(OCC23CCCN2CCC3)nc2c(F)c(-c3cc(O)cc4ccccc34)ncc12 [Example 26, 4-[8-fluoro-2-(1,2,3,5,6,7-hexahydropyrrolizin-8-ylmethoxy)-4-(3-methylsulfanylpropylamino)pyrido[4,3-d]pyrimidin-7-yl]naphthalen-2-ol] | 5.00 to 7.00 | 5.00 to 7.00 | 5.00 to 7.00 |  | 
COCCCN(C)c1nc(OCC23CCCN2CCC3)nc2c(F)c(-c3cc(O)cc4ccccc34)ncc12 [Example 28, 4-[8-fluoro-2-(1,2,3,5,6,7-hexahydropyrrolizin-8-ylmethoxy)-4-[3-methoxypropyl(methyl)amino]pyrido[4,3-d]pyrimidin-7-yl]naphthalen-2-ol] | 5.00 to 7.00 | 5.00 to 7.00 | 5.00 to 7.00 |  | 
Oc1cc(-c2ncc3c(N4CCC5COCC5C4)nc(OCC45CCCN4CCC5)nc3c2F)c2ccccc2c1 (stereo not shown) [Example 51, 4-[4-(3,3a,4,6,7,7a-hexahydro-1H-furo[3,4-c]pyridin-5-yl)-8-fluoro-2-(1,2,3,5,6,7-hexahydropyrrolizin-8-ylmethoxy)pyrido [4,3-d]pyrimidin-7-yl]naphthalen-2-ol] | 5.00 to 7.00 | 5.00 to 7.00 | 5.00 to 7.00 | 5.00 to 7.00 | 
CC1(C#N)CCN(c2nc(OCC34CCCN3CCC4)nc3c(F)c(-c4cc(O)cc5ccccc45)ncc23)CC1 [Example 63, 1-[8-fluoro-2-(1,2,3,5,6,7-hexahydropyrrolizin-8-ylmethoxy)-7-(3-hydroxy-1-naphthyl)pyrido[4,3-d]pyrimidin-4-yl]-4-methyl-piperidine-4-carbonitrile] | 5.00 to 7.00 | 5.00 to 7.00 |  |  | 
CC(=O)OCCCNc1nc(OCC23CCCN2CCC3)nc2c(F)c(-c3cc(O)cc4ccccc34)ncc12 [Example 64, 3-[[8-fluoro-2-(1,2,3,5,6,7-hexahydropyrrolizin-8-ylmethoxy)-7-(3-hydroxy-1-naphthyl)pyrido[4,3-d]pyrimidin-4-yl]amino]propyl acetate] | 5.00 to 7.00 | 5.00 to 7.00 |  |  | 

Source: patent publication US20240279241A1, “PYRIDO[4,3-D]PYRIMIDINE COMPOUNDS CAPABLE OF INHIBITING KRAS MUTANT PROTEINS” (Redx Pharma PLC, priority 2021, published 2024)
